The text below walks through data of patent US20090298857A1, “Treatment of Neurodegenerative Diseases Through Inhibition of HSP90” (SLOAN-KETTERING INSTITUTE FOR CANCER RESEARCH, priority 2006, published 2009).

One data set concerns the target P-glycoprotein (Homo sapiens, UniProt P08183). Put plainly: P-glycoprotein substrate status. It counts as in vitro ADME. The text has this:
Another characteristic which is indicative of the ability to cross the blood brain barrier is protein binding. […] It is not sufficient for a potential neurotherapeutic agent to move across the BBB—it also has to stay in the brain long enough to exert its desired action. This means that it also has to avoid being a substrate for a variety of transport proteins that work to extrude compounds from the brain.

In data set [1] the test system is p35 and tau phosphorylation in whole brains. Put plainly: Five day PU-DZ8 treatment of nine-month old JNPL3 mice. The format is in vivo. The text has this:
Transgenic mice: Transgenic mice, JNPL3 line (59) overexpressing mutant human tau (P301L, 4R0N) were used in this study. Mice were heterozygous and on a mixed hybrid genetic background composed of C57BL/DBA2/SW, as published in ref. 59. These mice develop NFTs in the basal telencephalon, diencephalon, brainstem, and spinal cord, with severe pathology accompanied by degeneration in the spinal cord leading to dystonia, paralysis, and death in mice >12 months in age. Nine month-old male JNPL3 mice (n=2) were treated intraperitoneally with PU-DZ8 or vehicle for 5 days. Mice were sacrificed 12 h after last treatment by cervical dislocation under anesthesia.
To further examine the effect of Hsp90 on tau phosphorylation, we used the JNPL3 line of mice expressing mutant (P301L) tau protein (59). Genetic analyses have linked mutations in the tau gene to FTDP-17 (60, 61). Over 20 distinct pathogenic mutations have been identified, with P301L as the most common mutation in tauophaties (33). […] The tau protein in JNPL3 is predominantly human and is phosphorylated at multiple sites: T181 (AT270). S202/T205 (AT8), T212 (AT100), T231 (AT180), S262, S396/S404, S409 and S422 (59, 62). […] The degree of p35 expression translated well into alleviation of phosphorylation. […] However, in mice where effects were more prominent and p35 expression declined to approximately 20% as compared to control, a significant effect on tau phosphorylation at S202/T205 and T212/S214 and a 50% reduction on T231 was observed. We could not detect a significant amount of tau phosphorylation at T181, site found to be hyperphosphorylated in PHF, tangles and neurofilaments (65). Again, whole brain expression of cdk5 was not affected (FIG. 3).

Data set [2] can be described thus: Assessment of PU-DZ8 brain levels by HPLC/MS/MS. It counts as in vivo, mice. The settings on record: 75 mg/kg i.p. The procedure:
Assessment of PU-DZ8 brain levels. Concentrations of compound were determined and quantitated by a MRM mode using a tandem high-performance liquid chromatography-mass/mass spectrometry (HPLC/MS/MS). A weighed piece of brain was rinsed with saline isotonic solution, dried with gauze and then homogenized in mobile phase (acetonitrile (ACN)/0.1% formic acid=1.2/2.8, v/v). Haloperidol was added as internal standard. PU-DZ8 was extracted in methylene chloride, the organic layer was separated, speedily dried under vacuum and reconstituted in the mobile phase. Compound analysis was performed in the API 4000™ LC/MS/MS (Applied Biosystems) which was coupled with a Shimadzu LC system and a 96-well plate autosampler. A Gemini C18 column (5 μ particle size, 50×4.6 mm I.D.) was used for the LC separation. The analyte was eluted under an isocratic condition for 4 min at a flow rate of 0.4 mL/min.
One dose of PU-DZ8 (75 mg/kg) was administered intraperitoneally (i.p.) to female mice of 2.5-4 months in age (n=32) and animals were sacrificed in the interval of 0 to 36 h. Both aggregate-free Tau (S1) and insoluble Tau (P3) fractions were prepared from the subcortical and cortical regions of these mice. PU-DZ8 levels in the brain reached 0.35 μg/g (˜700 nM) at 4 h, and the pharmacologically relevant dose was retained for at least 12 h post-administration (0.2 μg/g, ˜390 nM).

The test system of data set [3] is mTau expression and phosphorylation, subcortical brain region. Put plainly: 30 day Hsp90 inhibitor treatment of JNPL3 mice. It counts as in vivo. The settings on record: 30 days. The procedure:
To investigate whether modulation of mTau could be sustained over a longer Hsp90 inhibitor-treatment period, without being toxic to mice. JNPL3 mice were subjected for 30 days to these agents. Female JNPL3 mice 6.5 months of age (n=10) were administered i.p. vehicle (n=5) or one of the Hsp90 inhibitors, PU24FC1 (200 mg/kg) or PU-DZ8 (75 mg/kg) (n = 5), on a daily, five-times per week schedule and animals were sacrificed at 8 h following the last administered dose of inhibitor. […] Furthermore, no visible internal organ damage was detected at sacrifice upon gross inspection. Both S1 and P3 fractions extracted from the subcortical brain region of these mice were analyzed for mTau expression and phosphorylation.

The subject of data set [4] is p35 and Tau phosphorylation in cortical region. Put plainly: One dose PU-DZ8 in hTau mice. It counts as in vivo. The settings on record: 75 mg/kg i.p. The procedure: The majority of Tau pathology in hTau mice is located in the cortical brain region. These mice express six isoforms of non-mutant human Tau, but develop AD-like Tau-pathology. Heat-stable fractions (S1) prepared from cortical homogenates of these mice indicate an age-related accumulation of Tau phosphorylated at putative cdk5 sites. […] Aggregate-free Tau (S1) fractions were prepared from the cortical region of these mice and human Tau levels assessed by immunobloting with an antibody specific for 3-repeat domain Tau (RD3). By analogy to experiments on primary neuronal cultures and WT Tau transfected cells, the Hsp90 inhibitor had no effect on soluble WT Tau expression. […] The monoclonal antibody CP13 is commonly used to detect Tau pathology in both early and more advanced stages of Tau aggregate accumulation (41).

Data set [5] concerns mutant tau (HT7), Hsp70, p35. Put plainly: One dose PU-DZ8 in 6 month JNPL3 mice, S1 fraction Western blot (FIG. 9). It counts as in vivo. The settings on record: one dose 75 mg/kg IP, subcortical S1. The procedure: JNPL3 female mice 6 months of age were treated IP with the Hsp90 inhibitor PU-DZ8 (75 mg/kg) and sacrificed various times as indicated in FIG. 9. Brains were divided in subcortical and cortical regions and processed using the Greenberg and Davies extraction protocol (77). Sarkosyl soluble fractions (S1) extracted from the subcortical region were analyzed by WB for p35, cdk5, mutant tau (HT7), Hsp90 and Hsp70. Protein bands were normalized to actin and plotted as relative change from untreated mice.

For data set [6] the following is noted: ref. (2); cited from earlier work.

Several values for one entry are separate records, joined by “and”; a condition that tells them apart may be missing. Equal values may be shown once.

P-glycoprotein, sequence (P08183 whole entry): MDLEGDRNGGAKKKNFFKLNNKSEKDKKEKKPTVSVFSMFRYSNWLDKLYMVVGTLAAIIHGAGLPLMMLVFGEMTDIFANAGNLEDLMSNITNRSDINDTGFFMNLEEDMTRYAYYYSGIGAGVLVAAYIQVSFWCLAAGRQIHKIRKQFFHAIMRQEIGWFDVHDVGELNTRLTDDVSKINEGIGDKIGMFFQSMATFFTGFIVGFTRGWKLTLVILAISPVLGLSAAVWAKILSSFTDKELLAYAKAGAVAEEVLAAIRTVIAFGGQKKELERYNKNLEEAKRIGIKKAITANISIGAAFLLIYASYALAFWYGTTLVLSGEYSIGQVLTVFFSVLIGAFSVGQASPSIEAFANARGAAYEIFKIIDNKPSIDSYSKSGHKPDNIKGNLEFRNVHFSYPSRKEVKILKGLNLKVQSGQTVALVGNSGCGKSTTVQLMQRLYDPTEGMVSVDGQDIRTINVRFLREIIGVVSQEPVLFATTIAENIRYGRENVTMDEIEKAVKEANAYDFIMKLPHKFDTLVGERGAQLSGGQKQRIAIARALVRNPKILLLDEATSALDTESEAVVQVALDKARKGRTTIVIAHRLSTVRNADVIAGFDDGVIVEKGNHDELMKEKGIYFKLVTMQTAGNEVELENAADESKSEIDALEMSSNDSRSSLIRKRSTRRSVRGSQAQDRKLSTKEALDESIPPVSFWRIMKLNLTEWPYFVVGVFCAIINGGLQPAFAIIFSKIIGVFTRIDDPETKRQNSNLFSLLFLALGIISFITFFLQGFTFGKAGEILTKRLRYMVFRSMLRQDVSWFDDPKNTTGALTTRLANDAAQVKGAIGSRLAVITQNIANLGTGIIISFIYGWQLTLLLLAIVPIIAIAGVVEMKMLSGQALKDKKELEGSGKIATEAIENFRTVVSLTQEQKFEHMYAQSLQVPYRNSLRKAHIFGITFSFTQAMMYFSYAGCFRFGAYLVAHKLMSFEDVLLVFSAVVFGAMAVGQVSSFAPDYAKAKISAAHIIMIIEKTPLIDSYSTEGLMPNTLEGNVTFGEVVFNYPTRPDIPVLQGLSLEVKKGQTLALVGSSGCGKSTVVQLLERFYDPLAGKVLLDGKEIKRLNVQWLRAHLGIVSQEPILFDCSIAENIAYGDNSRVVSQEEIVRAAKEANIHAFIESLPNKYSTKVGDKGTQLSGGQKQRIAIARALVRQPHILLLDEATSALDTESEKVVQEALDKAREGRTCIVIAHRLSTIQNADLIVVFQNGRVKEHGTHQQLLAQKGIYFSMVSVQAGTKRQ

As to `CC(C)NCCCn1c(Cc2cc3c(cc2I)OCO3)nc2c(N)nc(F)nc21` [PU-DZ8], on P-glycoprotein, the P-gp substrate result is listed as “not a substrate of P-pg”. Moreover, in data set [1] (5 days i.p.), the “levels of compound in brain” value was “Pharmacologically relevant levels” and the “whole brain expression of cdk5” value is “not affected”. Besides, the “reduction in p35 levels” value in data set [1] (5 days i.p., whole brain) stood at 50%. Further, in data set [1] (at 50% reduction in p35 levels), the “effect on tau phosphorylation at S202/T205 (Ab AT-8)” value is recorded as “approximately similar effect” and the “reduction of phosphorylation on T212/S214 (Ab AT-100)” value is on record as “almost completely”. The “effect on tau phosphorylated at T231 (Ab AT-180)” value in data set [1] (at a reduction by 50% in p35 expression) was “No significant effect”. Further, in data set [1] (mice where effects were more prominent), the “p35 expression as compared to control” value is “approximately 20%”. Also, the “reduction of tau phosphorylation on T231” value in data set [1] (mice with p35 expression approximately 20% of control) was 50%. Also, the “level in the brain” value in data set [2] (4 h) was 0.35 μg/g and ~700 nM. In addition, the “level in the brain” value in data set [2] (12 h post-administration) is 0.2 μg/g and ~390 nM. In addition, the “p35 in S1 fraction” value in data set [3] was “p35 reduction”. The “toxicity (animal weight, fur appearance, appetite, posture)” value in data set [3] (daily five-times per week i.p., PU24FC1 200 mg/kg, PU-DZ8 75 mg/kg) is recorded as “No toxicity was observed”. The “Tau expression and phosphorylation in S1 and P3 fractions” value in data set [3] (hTau P<0.0001, T231 P=0.0034 (FIG. 15)) is “significant reduction”. For the same compound, in data set [4] (8 h post-administration, P=0.0019), the p35 levels entry is “significant time-dependent reduction”. In addition, in data set [4] (8 h post-administration, P=0.0078), the “Tau phosphorylation on Ser202 (antibody CP13)” value is “alleviation of Tau phosphorylation”. Further, the “soluble WT Tau expression” value in data set [4] (hTau mice, cortical S1) is listed as “no effect”. Besides, in data set [5], the “chaperone levels (hsp70)” value was “hsp70 increase” and the “mutant protein mtau (HT7)” value was “degradation”. Moreover, the water solubility result in data set [6] was “water soluble”.
